The record followed here is patent publication US20240174744A1, “METHODS OF TREATMENT USING PROTEIN BINDERS TO IRHOM2 EPITOPES” (SCIRHOM GMBH, priority 2021, published 2024).

The experiment relates to PMA-induced release of HB-EGF from PBMCs from patients suffering from rheumatoid arthritis. Nature of the experiment: ELISA-based HB-EGF release assay, PBMCs from RA-patients. To be noted: Homo sapiens; chimeric antibodies (CHO) 1 μg/ml; Batimastat 10 μM; PMA 25 ng/ml, 6 hours. In kind it is cell-based. The procedure: In contrast to Example 35, where the inhibitory effects of the antibodies of the present disclosure on PMA-induced release of endogenous HB-EGF from primary human material obtained from healthy donors using peripheral blood mononuclear cells (PBMCs) were tested, this analysis was conducted to analyze the inhibitory effects of the antibodies of the present disclosure on PMA-induced release of endogenous HB-EGF from primary human material obtained from patients suffering from rheumatoid arthritis (RA-patients).
In brief, on day 1, Nunc black MaxiSorp® 96-well plates (Thermo Fisher Scientific, USA) were coated overnight with 100 μl per well of rat anti-human HB-EGF capture antibody (provided as part of the DuoSet ELISA kit) at 2 μg/ml TBS at 4° C. On day 2, the capture antibody solution was removed and MaxiSorp® plates were blocked with 300 μl per well of TBS, 1% BSA at room temperature for 3 hours. […]
To avoid drying-up, 30 μl TBS were added to each well of the MaxiSorp® plates immediately, followed by the transfer of 70 μl cell-free supernatant per sample. […] Using an infinite M1000 (Tecan Group, Switzerland) microplate reader, the fluorescence of each well was collected at an excitation wavelength of 435 nm and an emission wavelength of 555 nm.
(An ELISA detects its analyte on a solid surface through an enzyme-linked reagent.)

Structures are written as SMILES.

The inhibition is the drop in the measured response relative to a control, in per cent.

With `CNC(=O)[C@H](Cc1ccccc1)NC(=O)[C@H](CC(C)C)[C@H](CSc1cccs1)C(=O)NO` [Batimastat], the inhibition at 10 µM was 102%.
